Source: ChEMBL document CHEMBL1255183, “Role of the phenolic hydroxyl group in the biological activities of simplified analogue of aplysiatoxin with antiproliferative activity” (Bioorg Med Chem Lett, 2010)

Columns and labels:
Raji [1] = experiment: Induction of EBA-early antigen production in human Raji cells at 1 uM; assay type: cell-based; details: human gammaherpesvirus 4
[2] = Cytotoxicity against human Raji cells assessed as viability at 10^-7 M; assay type: cell-based; details: read-out: Activity
Raji [3] = experiment: Induction of EBA-early antigen production in human Raji cells at 10^-7 M; assay type: cell-based; details: human gammaherpesvirus 4
[4] = Cytotoxicity against human Raji cells assessed as viability at 1 uM; assay type: cell-based; details: read-out: Activity
[5] = target: Protein kinase C beta type (Homo sapiens, UniProt P05771); experiment: Inhibition of [3H]PDBu binding to PKC beta C1A peptide
[6] = target: T1, Protein kinase C delta type (Homo sapiens, UniProt Q05655); experiment: Inhibition of [3H]PDBu binding to PKC delta C1B peptide
[7] = target: Protein kinase C theta type (Homo sapiens, UniProt Q04759); experiment: Inhibition of [3H]PDBu binding to PKCtheta C1B peptide
[8] = target: Protein kinase C eta type (Homo sapiens, UniProt P24723); experiment: Inhibition of [3H]PDBu binding to PKCeta C1B peptide
[9] = target: Protein kinase C alpha type (Homo sapiens, UniProt P17252); experiment: Inhibition of [3H]PDBu binding to PKC alpha C1A peptide
[10] = target: Protein kinase C gamma type (Homo sapiens, UniProt P05129); experiment: Inhibition of [3H]PDBu binding to PKC gamma C1A peptide
[11] = target: T2, Protein kinase C epsilon type (Homo sapiens, UniProt Q02156); experiment: Inhibition of [3H]PDBu binding to PKCepsilon C1B peptide
T2 sequence (Q02156 whole entry): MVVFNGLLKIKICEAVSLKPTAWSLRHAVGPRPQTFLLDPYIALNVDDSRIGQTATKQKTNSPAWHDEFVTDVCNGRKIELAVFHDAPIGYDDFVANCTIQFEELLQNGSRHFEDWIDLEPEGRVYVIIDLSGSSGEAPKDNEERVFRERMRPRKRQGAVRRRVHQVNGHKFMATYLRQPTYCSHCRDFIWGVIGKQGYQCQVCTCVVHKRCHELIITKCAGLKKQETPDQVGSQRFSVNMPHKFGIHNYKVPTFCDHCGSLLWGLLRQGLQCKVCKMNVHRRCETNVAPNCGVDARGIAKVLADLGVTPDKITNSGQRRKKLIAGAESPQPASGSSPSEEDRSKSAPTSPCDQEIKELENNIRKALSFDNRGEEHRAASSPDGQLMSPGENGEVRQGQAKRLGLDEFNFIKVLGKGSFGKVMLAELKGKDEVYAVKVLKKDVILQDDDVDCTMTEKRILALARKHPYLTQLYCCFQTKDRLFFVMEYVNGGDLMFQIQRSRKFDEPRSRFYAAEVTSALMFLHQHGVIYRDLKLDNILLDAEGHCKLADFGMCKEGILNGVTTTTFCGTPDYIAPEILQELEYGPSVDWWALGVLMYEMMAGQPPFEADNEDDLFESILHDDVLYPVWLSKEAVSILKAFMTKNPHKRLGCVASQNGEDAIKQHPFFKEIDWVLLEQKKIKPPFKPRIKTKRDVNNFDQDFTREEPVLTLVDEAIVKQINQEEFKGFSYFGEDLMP

[12] = target: T1, Protein kinase C delta type; experiment: Inhibition of [3H]PDBu binding to PKC delta C1A peptide
HCC 2998 = experiment: Cytotoxicity against human HCC2998 cells; assay type: functional
PC-3 = experiment: Cytotoxicity against human PC3 cells; assay type: functional
MDA-MB-231 = experiment: Cytotoxicity against human MDA-MB-231 cells; assay type: functional
Raji [13] = experiment: Inhibition of TPA-induced EBA-early antigen production in human Raji cells at 1 uM; assay type: cell-based; design: scale not given: the % may be the effect or the level left; details: human gammaherpesvirus 4
Raji [14] = experiment: Inhibition of TPA-induced EBA-early antigen production in human Raji cells at 10^-7 M; assay type: cell-based; design: scale not given: the % may be the effect or the level left; details: human gammaherpesvirus 4
A549 = experiment: Cytotoxicity against human A549 cells; assay type: functional
SF-295 = experiment: Cytotoxicity against human SF295 cells; assay type: functional
[15] = Cytotoxicity against human Raji cells assessed as viability at 1 uM in presence of TPA; assay type: cell-based; details: read-out: Activity
NCI-H460 = experiment: Cytotoxicity against human NCI-H460 cells; assay type: functional
[16] = Cytotoxicity against human Raji cells assessed as viability at 10^-7 M in presence of TPA; assay type: cell-based; details: read-out: Activity

T1 sequence (Q05655 whole entry): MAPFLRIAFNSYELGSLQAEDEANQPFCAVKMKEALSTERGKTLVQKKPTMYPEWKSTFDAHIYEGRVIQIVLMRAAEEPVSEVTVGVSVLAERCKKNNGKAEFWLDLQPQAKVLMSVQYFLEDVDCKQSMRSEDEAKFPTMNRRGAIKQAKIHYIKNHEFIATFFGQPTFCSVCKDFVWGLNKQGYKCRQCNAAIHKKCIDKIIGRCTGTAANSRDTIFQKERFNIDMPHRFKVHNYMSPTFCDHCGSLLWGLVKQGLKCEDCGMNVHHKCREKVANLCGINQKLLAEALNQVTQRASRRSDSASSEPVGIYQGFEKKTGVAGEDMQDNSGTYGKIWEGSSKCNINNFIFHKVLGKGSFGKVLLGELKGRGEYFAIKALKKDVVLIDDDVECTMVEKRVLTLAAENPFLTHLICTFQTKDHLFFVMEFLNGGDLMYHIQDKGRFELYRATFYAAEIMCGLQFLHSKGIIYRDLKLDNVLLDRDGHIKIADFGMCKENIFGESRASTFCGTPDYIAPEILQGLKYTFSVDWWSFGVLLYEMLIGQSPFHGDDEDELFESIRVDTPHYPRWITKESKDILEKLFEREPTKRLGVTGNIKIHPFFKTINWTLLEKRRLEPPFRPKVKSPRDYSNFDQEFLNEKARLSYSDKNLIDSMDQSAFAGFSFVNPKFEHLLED
Sequence of Protein kinase C theta type (Q04759 whole entry): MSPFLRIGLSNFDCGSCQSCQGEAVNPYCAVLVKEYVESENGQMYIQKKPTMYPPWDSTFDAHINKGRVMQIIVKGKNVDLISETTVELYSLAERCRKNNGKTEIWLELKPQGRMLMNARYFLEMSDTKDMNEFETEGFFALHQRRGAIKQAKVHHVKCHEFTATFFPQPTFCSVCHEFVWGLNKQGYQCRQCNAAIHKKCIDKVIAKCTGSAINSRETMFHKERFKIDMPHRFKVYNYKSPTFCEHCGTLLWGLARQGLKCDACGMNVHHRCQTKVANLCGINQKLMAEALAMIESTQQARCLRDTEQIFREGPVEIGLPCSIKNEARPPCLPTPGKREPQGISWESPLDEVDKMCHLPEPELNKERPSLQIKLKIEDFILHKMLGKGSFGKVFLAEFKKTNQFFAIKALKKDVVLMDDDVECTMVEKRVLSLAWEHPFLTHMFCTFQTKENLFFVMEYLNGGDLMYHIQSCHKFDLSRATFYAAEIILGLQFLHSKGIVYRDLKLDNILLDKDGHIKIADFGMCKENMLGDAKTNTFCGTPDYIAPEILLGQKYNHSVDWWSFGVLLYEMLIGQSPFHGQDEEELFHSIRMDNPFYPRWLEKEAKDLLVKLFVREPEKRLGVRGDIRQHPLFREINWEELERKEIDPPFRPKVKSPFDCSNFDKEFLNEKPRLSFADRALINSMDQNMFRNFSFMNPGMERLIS
Sequence of Protein kinase C beta type (P05771 whole entry): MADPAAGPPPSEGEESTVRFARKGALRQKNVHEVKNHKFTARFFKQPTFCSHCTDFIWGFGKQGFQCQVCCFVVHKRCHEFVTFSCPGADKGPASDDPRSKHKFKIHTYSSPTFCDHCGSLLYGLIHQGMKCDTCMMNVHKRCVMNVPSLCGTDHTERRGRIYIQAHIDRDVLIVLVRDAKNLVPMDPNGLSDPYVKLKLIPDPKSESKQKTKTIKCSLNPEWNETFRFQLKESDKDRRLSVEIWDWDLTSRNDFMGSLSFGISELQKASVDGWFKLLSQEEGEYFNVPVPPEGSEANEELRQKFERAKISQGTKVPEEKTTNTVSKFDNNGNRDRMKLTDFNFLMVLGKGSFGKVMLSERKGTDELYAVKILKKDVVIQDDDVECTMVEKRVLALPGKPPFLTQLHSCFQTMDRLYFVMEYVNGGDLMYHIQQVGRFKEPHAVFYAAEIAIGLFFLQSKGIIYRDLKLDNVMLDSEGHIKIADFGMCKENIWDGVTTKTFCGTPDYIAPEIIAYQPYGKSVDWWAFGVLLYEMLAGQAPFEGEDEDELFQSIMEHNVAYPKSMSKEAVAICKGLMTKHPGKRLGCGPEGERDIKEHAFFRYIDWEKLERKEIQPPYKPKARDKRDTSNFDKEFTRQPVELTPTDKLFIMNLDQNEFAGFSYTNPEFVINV
Sequence of Protein kinase C eta type (P24723 whole entry): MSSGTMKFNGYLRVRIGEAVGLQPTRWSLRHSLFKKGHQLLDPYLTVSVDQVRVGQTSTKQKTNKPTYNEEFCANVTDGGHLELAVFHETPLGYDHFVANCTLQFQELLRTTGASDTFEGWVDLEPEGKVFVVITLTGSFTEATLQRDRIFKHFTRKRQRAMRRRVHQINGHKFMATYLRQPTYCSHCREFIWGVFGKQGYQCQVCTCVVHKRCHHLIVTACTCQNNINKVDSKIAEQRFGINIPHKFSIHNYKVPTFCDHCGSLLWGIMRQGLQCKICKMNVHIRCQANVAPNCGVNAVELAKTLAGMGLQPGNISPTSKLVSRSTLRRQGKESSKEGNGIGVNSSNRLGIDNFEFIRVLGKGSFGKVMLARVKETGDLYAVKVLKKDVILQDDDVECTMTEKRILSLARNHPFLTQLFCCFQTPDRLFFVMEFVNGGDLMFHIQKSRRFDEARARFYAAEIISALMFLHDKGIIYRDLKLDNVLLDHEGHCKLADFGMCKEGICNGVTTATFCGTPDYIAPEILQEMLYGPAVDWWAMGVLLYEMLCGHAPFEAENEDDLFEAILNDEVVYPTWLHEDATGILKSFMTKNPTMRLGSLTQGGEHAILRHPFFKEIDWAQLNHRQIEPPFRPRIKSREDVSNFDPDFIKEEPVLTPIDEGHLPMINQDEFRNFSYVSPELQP

CCCCCCCCCCCCCC(=O)O[C@@H]1[C@@H](C)[C@@]2(O)[C@@H](C=C(CO)C[C@]3(O)C(=O)C(C)=C[C@@H]23)[C@@H]2C(C)(C)[C@]12OC(C)=O [PHORBOL MYRISTATE ACETATE]
Activity (Raji [1]): 30.2% | viability at 0.1 µM [2]: 60% | Activity (Raji [3]): 28.8% | viability at 1 µM [4]: 50%

O=C1C[C@H](CO)OC(=O)C[C@H]2CCC[C@]3(C[C@@H](C[C@@H](CCCCc4ccccc4)O3)O1)O2
Ki [5]: 3.5 µM | Ki [6]: 0.17 µM | Ki [7]: 0.17 µM | Ki [8]: 0.18 µM | Ki [9]: 2.4 µM | Ki [10]: 1.6 µM | Ki [11]: 0.82 µM | Ki [12]: 6.8 µM

CCC/C=C/C=C/C(=O)O[C@H]1/C(=C/C(=O)OC)C[C@H]2C[C@H]([C@@H](C)O)OC(=O)C[C@H](O)C[C@@H]3C[C@H](OC(C)=O)C(C)(C)[C@](O)(C[C@@H]4C/C(=C/C(=O)OC)C[C@H](/C=C/C(C)(C)[C@]1(O)O2)O4)O3 [BRYOSTATIN 1]
GI50 (HCC 2998): 5.01 µM | GI50 (PC-3): 5.01 µM | GI50 (MDA-MB-231): 6.31 µM | Activity (Raji [1]): 2% | Activity (Raji [13]): 5% | viability at 0.1 µM [2]: 60% | Activity (Raji [14]): 6.8% | GI50 (A549): 6.31 µM | GI50 (SF-295): 6.31 µM | viability at 1 µM [15]: 40% | Activity (Raji [3]): 1.4% | viability at 1 µM [4]: 40% | GI50 (NCI-H460): 2.51 µM | viability at 0.1 µM [16]: 60%
